Results on four compounds are retold here after patent US20220031687A1, “SYNERGIC PHARMACEUTICAL COMBINATION OF A LEUKOTRIENE-RECEPTOR ANTAGONIST AND AN INVERSE AGONIST OF HISTAMINE HI” (priority 2018, published 2022).

Data set [1] has as its system rat tracheal rings. The data set is described as follows: LTD4-induced contraction of isolated rat tracheal rings. Type of data set: cell-based. The text has this:
. The thoracic cavity was exposed, the neck was dissected, and the trachea was removed 1 mm above the tracheal bifurcation and 1 mm below the thyroid cartilage. The sample was submerged in cold Krebs-Henseleit solution bubbled with 95% 02 and 5% CO2, and 3 mm-thick rings were cut. Each ring was placed in an isolated organ chamber, with its bottom anchored by means of a stainless-steel hook and another hook connected to a tension transducer. The chamber was then filled with Krebs-Henseleit solution at 36° C. bubbled with 95% 02 and 5% CO2, pH 7.4±0.5. Two washes were performed, and a 1.5 g load was applied to each ring and were left to rest for 60 minutes. […]
(§1) The antagonist's effects to their own agonists were analyzed using dose-response curves of the agonists in tracheal rings incubated with different antagonists' concentrations. […]
(§2) The half maximal effective concentration (EC50) of each dose-response curve of the analyzed agonists was obtained using the sigmoid model, wherein: y=a+(b−a)/(1+10^(logx0-x)*x p)). […]
(§3) Data are presented as mean±standard deviation of 2 rings obtained from each of the tracheas of 5 rats. Data were analyzed with the one-way ANOVA test with a Dunett's post-test. EC50's were determined by means of the sigmoid model and the 40 percent of effects was obtained using a linear regression. The t and T values were determined based on a t-values table.

Data set [2] concerns rat tracheal rings. The data set is described as follows: Histamine-induced contraction of isolated rat tracheal rings. Type of data set: cell-based.
Excerpt: Male Wistar rats 300-350 g were sacrificed with a phenobarbital sodium overdose given by intraperitoneal route. The thoracic cavity was exposed, the neck was dissected, and the trachea was removed 1 mm above the tracheal bifurcation and 1 mm below the thyroid cartilage. The sample was submerged in cold Krebs-Henseleit solution bubbled with 95% 02 and 5% CO2, and 3 mm-thick rings were cut. Each ring was placed in an isolated organ chamber, with its bottom anchored by means of a stainless-steel hook and another hook connected to a tension transducer. The chamber was then filled with Krebs-Henseleit solution at 36° C. bubbled with 95% 02 and 5% CO2, pH 7.4±0.5. […]
as §1, §2, §3

For data set [3] the following is noted: cited from earlier work; for bioavailability / time to maximum plasma concentration: oral administration.
The conditions of data set [4]: cited from earlier work.

Molecules are shown by their SMILES. pEC50: −log10 of the molar value.

Consider `CCCCC/C=C\C\C=C/C=C/C=C/[C@@H](SC[C@H](N)C(=O)NCC(=O)O)[C@@H](O)CCCC(=O)O` [LTD4, leukotriene D4], for which, in the data set on rat tracheal rings [1] (cumulative administration, normalised to acetylcholine 0.1 mM = 100%, read-out: EC50 of concentration-dependent contraction of rat tracheal rings), the pEC50 was 7.37.

The term bioavailability denotes the share of a dose that reaches the circulation, judged against a reference dose that is usually intravenous. Take `CN1CCC(=C2c3ccccc3CC(=O)c3sccc32)CC1` [ketotifen, 4,9-Dihydro-4-(1-methyl-4-piperidylidene)-10H-benzo(4,5)cyclohepta[1,2-b]thiophen-10-one]: in the data set on rat tracheal rings [2] (100 μM ketotifen), the “blocking of the contraction induced by the highest histamine concentration” value came out at 65%. In data set [3] (first 48 hours), the “excreted in urine as metabolites” value is recorded as 60 to 70% and the “excreted unaltered in urine” value is given as “Approximately 1%”. In addition, the “first pass effect of the liver metabolism” value in data set [3] (glucuronidation and demethylation) is given as “approximately 50%”. In addition, in data set [3] (in vivo), the “long half-life (biphasic elimination)” value is 21 h, the “short half-life (biphasic elimination)” value was 3 to 5 h and the therapeutic plasma concentrations was 1 to 4 µg/mL. Moreover, in data set [3], the bioavailability result is recorded as “approximately 50%” and the “time to maximum plasma concentration” value is 2 to 4 h. The fecal excretion in data set [3] (up to) is 30 to 40%. Also, the plasma protein binding in data set [4] is reported as 75%.

`CC(C)(O)c1ccccc1CC[C@@H](SCC1(CC(=O)O)CC1)c1cccc(/C=C/c2ccc3ccc(Cl)cc3n2)c1` [montelukast, 1-[[[(1R)-1-[3-[(1E)-2-(7-chloro-2-quinolinyl)ethenyl]phenyl]-3-[2-(1-hydroxy-1-methylethyl)phenyl]propyl]thio]methyl] cyclopropaneacetic acid]: in the data set with rat tracheal rings [1] (30 μM montelukast), the “blocking of the contraction induced by the highest LTD4 concentration” value is on record as 75%. Besides, in data set [3] (in vivo), the biological half-life is reported as 2.7-5.5 hours. Further, in data set [3], the bioavailability is given as 64% and the “time to maximum plasma concentration” value was 2 to 4 h. Also, the plasma protein binding in data set [4] is 99%.

In the case of `NCCc1c[nH]cn1` [histamine, 2-(4-imidazol) ethylamine], in the data set with rat tracheal rings [2] (Rattus norvegicus, cumulative administration, normalised to acetylcholine 0.1 mM = 100%, read-out: EC50 of concentration-dependent contraction of rat tracheal rings), the pEC50 is 5.45.
